Experimental findings from ChEMBL document CHEMBL5365457, “Selective HDAC3 Inhibitors with Potent In Vivo Antitumor Efficacy against Triple-Negative Breast Cancer” (J Med Chem, 2023) are described below.

Where only a bound is given, the exact number is not on record here.

The target of series [1] is T1, Histone deacetylase 8 (Homo sapiens, UniProt Q9BY41).
T1 sequence (Q9BY41 whole entry): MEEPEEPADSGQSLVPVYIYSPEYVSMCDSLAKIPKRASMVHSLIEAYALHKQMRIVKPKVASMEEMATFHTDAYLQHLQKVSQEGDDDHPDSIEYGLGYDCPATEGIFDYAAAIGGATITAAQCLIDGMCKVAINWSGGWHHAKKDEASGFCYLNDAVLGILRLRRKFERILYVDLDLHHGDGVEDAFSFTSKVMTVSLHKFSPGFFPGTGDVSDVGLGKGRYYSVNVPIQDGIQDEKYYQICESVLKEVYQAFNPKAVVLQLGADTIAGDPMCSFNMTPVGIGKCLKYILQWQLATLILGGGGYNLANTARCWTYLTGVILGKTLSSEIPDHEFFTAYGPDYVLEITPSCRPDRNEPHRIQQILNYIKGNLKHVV
Kind of series: Inhibition of HDAC8 (unknown origin).

Series [2] concerns the target T2, Protein deacetylase HDAC6 (Homo sapiens, UniProt Q9UBN7).
T2 sequence (Q9UBN7 whole entry): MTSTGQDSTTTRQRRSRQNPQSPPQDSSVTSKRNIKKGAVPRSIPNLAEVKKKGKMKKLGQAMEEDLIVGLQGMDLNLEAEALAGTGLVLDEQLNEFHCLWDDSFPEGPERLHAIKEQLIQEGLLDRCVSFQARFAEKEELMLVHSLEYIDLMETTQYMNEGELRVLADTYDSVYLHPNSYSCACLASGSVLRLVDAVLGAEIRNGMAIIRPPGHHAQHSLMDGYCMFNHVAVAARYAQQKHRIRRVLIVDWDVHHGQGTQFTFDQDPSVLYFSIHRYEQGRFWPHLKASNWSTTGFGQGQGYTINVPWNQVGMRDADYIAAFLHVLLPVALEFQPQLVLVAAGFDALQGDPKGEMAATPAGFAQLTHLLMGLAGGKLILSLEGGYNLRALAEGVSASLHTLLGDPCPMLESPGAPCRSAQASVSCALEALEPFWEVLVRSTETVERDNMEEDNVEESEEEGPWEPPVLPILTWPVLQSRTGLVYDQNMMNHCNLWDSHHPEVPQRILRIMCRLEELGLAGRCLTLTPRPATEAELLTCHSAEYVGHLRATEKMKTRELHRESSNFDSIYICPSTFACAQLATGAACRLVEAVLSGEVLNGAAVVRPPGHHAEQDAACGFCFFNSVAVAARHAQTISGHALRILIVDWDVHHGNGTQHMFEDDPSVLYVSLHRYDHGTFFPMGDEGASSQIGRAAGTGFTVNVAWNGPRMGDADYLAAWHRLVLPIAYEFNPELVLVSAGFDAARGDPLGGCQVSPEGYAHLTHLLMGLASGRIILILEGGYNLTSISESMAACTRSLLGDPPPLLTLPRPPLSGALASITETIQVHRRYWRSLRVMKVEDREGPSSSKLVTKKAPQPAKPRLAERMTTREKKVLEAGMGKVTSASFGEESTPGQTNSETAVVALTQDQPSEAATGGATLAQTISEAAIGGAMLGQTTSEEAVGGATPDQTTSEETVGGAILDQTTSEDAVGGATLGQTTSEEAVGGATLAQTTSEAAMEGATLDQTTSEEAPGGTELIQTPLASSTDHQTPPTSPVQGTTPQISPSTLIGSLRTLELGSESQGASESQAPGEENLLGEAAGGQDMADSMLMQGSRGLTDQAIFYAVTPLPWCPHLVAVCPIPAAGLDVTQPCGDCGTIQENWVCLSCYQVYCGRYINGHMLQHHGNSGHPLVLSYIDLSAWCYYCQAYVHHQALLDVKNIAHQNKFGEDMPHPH
The experiment in a line: Inhibition of HDAC6 (unknown origin).

For another series, the system named is MDA-MB-453. Kind of series: Cytotoxicity against human MDA-MB-453 cells assessed as inhibition of cell growth incubated for 72 hrs by MTT assay. In kind it is functional, cell-based. Particulars: MDA-MB-453, 72 h. (Formazan colour is commonly taken as a measure of viable cells.)
Series [3] in a line: Selectivity ratio of IC50 for cytotoxicity against human HCEC cells assessed as inhibition of cell growth to IC50 for cytotoxicity against human MDA-MB-231 cells assessed as inhibition of cell growth. Particulars: HCEC cells versus MDA-MB-231 cells, read-out: Ratio IC50. In kind it is toxicity, cell-based.
Series [4] in a line: Selectivity ratio of IC50 for cytotoxicity against human MCF-10A cells assessed as inhibition of cell growth to IC50 for cytotoxicity against human MDA-MB-231 cells assessed as inhibition of cell growth. Type of series: toxicity, cell-based. Particulars: MCF-10A cells versus MDA-MB-231 cells, read-out: Ratio IC50.
The subject of the next series is MDA-MB-231. The experiment in a line: Cytotoxicity against human MDA-MB-231 cells assessed as inhibition of cell growth incubated for 72 hrs by MTT assay. Type of series: functional, cell-based. The settings on record: MDA-MB-231, 72 h.
Series [5] is described as follows: Selectivity ratio of IC50 for cytotoxicity against human HCEC cells assessed as inhibition of cell growth to IC50 for cytotoxicity against mouse 4T1 cells assessed as inhibition of cell growth. In kind it is toxicity, cell-based. Particulars: HCEC cells versus 4T1 cells, read-out: Ratio IC50.
In a further series the target is Histone deacetylase 1 (Homo sapiens, UniProt Q13547). Kind of series: Inhibition of full length N-terminal human recombinant HDAC1 at 1 uM incubated for 30 mins by fluorescence based microplate assay relative to control.
Chain of Histone deacetylase 1 (Q13547 whole entry): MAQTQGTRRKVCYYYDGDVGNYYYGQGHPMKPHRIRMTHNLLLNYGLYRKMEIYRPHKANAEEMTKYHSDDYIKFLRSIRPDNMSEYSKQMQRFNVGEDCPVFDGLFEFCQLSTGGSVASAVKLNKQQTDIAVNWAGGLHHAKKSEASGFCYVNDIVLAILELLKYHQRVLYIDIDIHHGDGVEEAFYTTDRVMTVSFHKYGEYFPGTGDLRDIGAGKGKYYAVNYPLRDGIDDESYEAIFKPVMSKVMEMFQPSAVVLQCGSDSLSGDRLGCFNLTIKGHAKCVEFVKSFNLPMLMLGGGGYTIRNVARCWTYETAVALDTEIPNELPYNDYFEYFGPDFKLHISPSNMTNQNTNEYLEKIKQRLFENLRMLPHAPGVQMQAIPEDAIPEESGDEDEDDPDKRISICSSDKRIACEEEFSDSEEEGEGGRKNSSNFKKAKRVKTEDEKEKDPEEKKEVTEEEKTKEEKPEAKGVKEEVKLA
In another series the test system is 4T1. The experiment in a line: Cytotoxicity against mouse 4T1 cells assessed as inhibition of cell growth incubated for 72 hrs by MTT assay. Type of series: functional, cell-based. The settings on record: 4T1, 72 h.
Series [6] can be described thus: Selectivity ratio of IC50 for cytotoxicity against human HEK293 cells assessed as inhibition of cell growth to IC50 for cytotoxicity against human MDA-MB-453 cells assessed as inhibition of cell growth. In kind it is toxicity, cell-based. The settings on record: HEK293 cells versus MDA-MB-453 cells, read-out: Ratio IC50.
Series [7] can be described thus: Cytotoxicity against human HCEC cells assessed as inhibition of cell growth incubated for 72 hrs by MTT assay. In kind it is toxicity, cell-based. The settings on record: human, HCEC cells.
The target in another series is Histone deacetylase 2 (Homo sapiens, UniProt Q92769). The experiment in a line: Inhibition of human recombinant HDAC2 at 1 uM incubated for 30 mins by fluorescence based microplate assay relative to control.
Chain of Histone deacetylase 2 (Q92769 whole entry): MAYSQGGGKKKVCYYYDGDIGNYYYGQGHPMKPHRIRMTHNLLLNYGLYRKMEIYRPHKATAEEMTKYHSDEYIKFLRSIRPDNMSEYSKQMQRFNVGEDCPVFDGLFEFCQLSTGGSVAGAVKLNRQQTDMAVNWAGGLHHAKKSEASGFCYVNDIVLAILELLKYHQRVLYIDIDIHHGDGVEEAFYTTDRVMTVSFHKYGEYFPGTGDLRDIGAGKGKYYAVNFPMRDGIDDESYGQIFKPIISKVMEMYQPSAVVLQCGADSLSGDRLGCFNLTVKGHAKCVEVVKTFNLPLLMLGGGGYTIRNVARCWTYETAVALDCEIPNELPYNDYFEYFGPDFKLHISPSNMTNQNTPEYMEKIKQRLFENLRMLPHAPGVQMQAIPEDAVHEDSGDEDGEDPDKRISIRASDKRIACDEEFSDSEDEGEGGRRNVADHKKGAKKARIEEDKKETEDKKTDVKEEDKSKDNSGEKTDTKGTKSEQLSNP
Series [8] in a line: Selectivity ratio of IC50 for cytotoxicity against human HEK293 cells assessed as inhibition of cell growth to IC50 for cytotoxicity against mouse 4T1 cells assessed as inhibition of cell growth. In kind it is toxicity, cell-based. The settings on record: HEK293 cells versus 4T1 cells, read-out: Ratio IC50.
A short description of series [9]: Cytotoxicity against human HEK293 cells assessed as inhibition of cell growth incubated for 72 hrs by MTT assay. Type of series: toxicity, cell-based.
The target in another series is Histone deacetylase 3 (Homo sapiens, UniProt O15379). Kind of series: Inhibition of human recombinant HDAC3 at 1 uM measured after 30 mins by fluorescence based microplate assay relative to control.
Chain of Histone deacetylase 3 (O15379 whole entry): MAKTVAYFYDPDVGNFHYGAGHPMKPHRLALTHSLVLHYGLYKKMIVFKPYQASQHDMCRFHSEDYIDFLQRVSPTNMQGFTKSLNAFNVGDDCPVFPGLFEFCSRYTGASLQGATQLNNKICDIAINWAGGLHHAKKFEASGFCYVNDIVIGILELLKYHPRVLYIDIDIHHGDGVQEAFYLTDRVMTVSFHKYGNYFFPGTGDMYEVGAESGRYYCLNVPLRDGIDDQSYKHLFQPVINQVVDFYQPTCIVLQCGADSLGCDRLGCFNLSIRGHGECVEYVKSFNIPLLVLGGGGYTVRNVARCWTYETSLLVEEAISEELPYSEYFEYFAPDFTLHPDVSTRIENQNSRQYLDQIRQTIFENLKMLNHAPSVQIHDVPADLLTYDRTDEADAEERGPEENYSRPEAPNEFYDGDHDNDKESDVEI
A short description of series [10]: Cytotoxicity against human MCF-10A cells assessed as inhibition of cell growth incubated for 72 hrs by MTT assay. In kind it is toxicity, cell-based.
A further series relates to MCF7. Kind of series: Cytotoxicity against human MCF7 cells assessed as inhibition of cell growth incubated for 72 hrs by MTT assay. Particulars: MCF7, 72 h. Type of series: functional, cell-based.
A short description of series [11]: Selectivity ratio of IC50 for cytotoxicity against human HEK293 cells assessed as inhibition of cell growth to IC50 for cytotoxicity against human MCF7 cells assessed as inhibition of cell growth. In kind it is toxicity, cell-based. Particulars: HEK293 cells versus MCF7 cells, read-out: Ratio IC50.
Series [12] can be described thus: Selectivity ratio of IC50 for cytotoxicity against human MCF-10A cells assessed as inhibition of cell growth to IC50 for cytotoxicity against […] cells assessed as inhibition of cell growth. Particulars: MCF-10A cells versus 4T1 cells, read-out: Ratio IC50. Type of series: toxicity, cell-based.
Series [13] is described as follows: Selectivity ratio of IC50 for cytotoxicity against human MCF-10A cells assessed as inhibition of cell growth to IC50 for cytotoxicity against human MCF7 cells assessed as inhibition of cell growth. In kind it is toxicity, cell-based. The settings on record: MCF-10A cells versus MCF7 cells, read-out: Ratio IC50.
Series [14] in a line: Selectivity ratio of IC50 for cytotoxicity against human HCEC cells assessed as inhibition of cell growth to IC50 for cytotoxicity against human MDA-MB-453 cells assessed as inhibition of cell growth. Particulars: HCEC cells versus MDA-MB-453 cells, read-out: Ratio IC50. In kind it is toxicity, cell-based.
Series [15] is described as follows: Selectivity ratio of IC50 for cytotoxicity against human HCEC cells assessed as inhibition of cell growth to IC50 for cytotoxicity against human MCF7 cells assessed as inhibition of cell growth. Type of series: toxicity, cell-based. Particulars: HCEC cells versus MCF7 cells, read-out: Ratio IC50.
Series [16] is described as follows: Selectivity ratio of IC50 for cytotoxicity against human MCF-10A cells assessed as inhibition of cell growth to IC50 for cytotoxicity against human MDA-MB-453 cells assessed as inhibition of cell growth. Type of series: toxicity, cell-based. The settings on record: MCF-10A cells versus MDA-MB-453 cells, read-out: Ratio IC50.
Series [17] can be described thus: Selectivity ratio of IC50 for cytotoxicity against human HEK293 cells assessed as inhibition of cell growth to IC50 for cytotoxicity against human MDA-MB-231 cells assessed as inhibition of cell growth. Type of series: toxicity, cell-based. Particulars: HEK293 cells versus MDA-MB-231 cells, read-out: Ratio IC50.
The target in series [18] is T2, Protein deacetylase HDAC6. Kind of series: Inhibition of human recombinant HDAC6 incubated for 15 mins by fluorescence based microplate analysis.
The target in series [19] is T1, Histone deacetylase 8. The experiment in a line: Inhibition of human recombinant HDAC8 incubated for 10 mins by fluorescence based microplate analysis.

A word on the IC50: it is the concentration that gives 50% inhibition. In general, inhibition refers to the percentage by which the read-out fell short of the control.

`Nc1ccccc1NC(=O)c1cnccn1`: the IC50 came to 28.5 µM against Histone deacetylase 8 [1] and 34.2 µM in series [2].
Regarding `CCCNNC(=O)c1cnc(NC(=O)c2ccc3[nH]ccc3c2)cn1`, the IC50 in the series with MDA-MB-453 came out at 2.19 µM; in the series on MDA-MB-231 it was 0.92 µM; with 4T1, 0.71 µM; in the series with MCF7 it was 2.03 µM. The selectivity ratio in [3], in series [4], in [5], in [6], in series [8] and in series [11] was over 40 throughout. For the same compound, the selectivity ratio in series [12], in series [13], in [14], in [15], in series [16] and in [17] was over 40 each time. For the same compound, the inhibition at Histone deacetylase 1 is under 17%; at Histone deacetylase 2 it was under 17%; on Histone deacetylase 3, over 70%. The IC50 at 72 h in series [7] came out at 180 µM; in series [9], 138 µM; in series [10], 125 µM.
Regarding `CCCNNC(=O)c1cnc(NCc2ccccc2)cn1`, the IC50 in the series on MDA-MB-453 turned out to be 2.76 µM; with MDA-MB-231, 1.23 µM; in the series with 4T1 it was 1.15 µM; in the series with MCF7, 1.12 µM. Moreover, the selectivity ratio in series [3], in series [4], in [5], in [6], in series [8] and in [11] was over 40 in each case. The selectivity ratio in [12], in series [13], in series [14], in [15], in series [16] and in series [17] was over 40 each time. Further, the figures for the inhibition at Histone deacetylase 1, at Histone deacetylase 2 and on Histone deacetylase 3 were under 17%, under 17% and over 70%, respectively. In addition, the IC50 at 72 h in [7] stood at 140 µM; in series [9], 110 µM; in series [10], 114 µM.
In the case of `Nc1ccccc1NC(=O)c1cnc(NCc2ccccc2)cn1`, the figures for the IC50 (in [18]; on Histone deacetylase 8 [19]) were 37.2 µM and 15.6 µM, respectively.
In the case of `CCCNNC(=O)c1cnc(NC(=O)c2ccc3ncccc3c2)cn1`, the IC50 in the series with MDA-MB-453 turned out to be 1.82 µM; with MDA-MB-231, 0.87 µM; in the series with 4T1, 0.59 µM; in the series on MCF7 it was 1.01 µM. In addition, the selectivity ratio in [3], in [4], in series [5], in [6], in [8] and in [11] was over 40 throughout. Further, the selectivity ratio in [12], in [13], in series [14], in series [15], in series [16] and in [17] was over 40 in each case. Also, the inhibition was under 17% at Histone deacetylase 1, under 17% at Histone deacetylase 2 and over 70% at Histone deacetylase 3. For the same compound, the IC50 at 72 h turned out to be 131 µM in series [7], 126 µM in [9] and 140 µM in series [10].
`CCCCNNC(=O)c1cnc(NCc2ccccc2)cn1`: the IC50 with MDA-MB-453 was 3.33 µM; in the series on MDA-MB-231, 132 µM; in the series with 4T1, 1.6 µM; in the series with MCF7, 2.16 µM. For the same compound, the selectivity ratio in series [3], in series [4], in [5], in series [6], in series [8] and in [11] was over 40 each time. Further, the selectivity ratio in series [12], in [13], in series [14], in series [15], in [16] and in series [17] was over 40 throughout. The IC50 at 72 h amounted to 129 µM in series [7], 133 µM in series [9] and 113 µM in series [10]. Also, the inhibition on Histone deacetylase 3 is over 70%.
